According to patent US20260226031A1, “NOVEL COMPOUNDS” (NRG THERAPEUTICS LTD., priority 2023, published 2026):

Legend:
mPTP [1] = assay: mPTP activity (Ca2+ retention) assay in isolated rat brain mitochondria; type: biochemical; details: for mPTP Rat brain pIC50: isolated rat brain mitochondria, Fluo5N fluorescence at 10 min after Ca2+ (75 μM) bolus
Method: MPTP activity was measured in brain mitochondria freshly isolated from female Sprague Dawley (250 to 300 gram) rats. Anaesthetised rats were perfused in-situ with ~40 ml cold Dulbecco's Phosphate Buffered Saline (DPBS), then brains dissected and transferred into 30 ml Isolation Buffer (225 mM mannitol, 75 mM sucrose, 1 mM EGTA, adjusted to pH 7.4 with 1M NaOH). The brain was minced using tweezers and a scalpel into ~5 mm pieces then transferred into a 50 ml Potterton Dounce homogenization tube on ice containing 10 ml ice-cold isolation buffer (as above with addition of Complete Protease inhibitor; 1 tablet per 50 ml buffer). Homogenisation was carried out using a Teflon® pestle at 1800 rpm. The slurry was centrifuged at 2000 g for 10 min at 4° C., then the supernatant centrifuged at 12,000 g for 9 min. The pellet was resuspended with a dounce homogeniser in isolation buffer as above but with the addition of 0.02% digitonin, centrifuged at 12,000 g for 11 min and finally resuspended in 5 ml modified isolation buffer (as above but with EGTA reduced to 0.1 mM).
Test compounds were prepared in 384 well polypropylene assay plates as described above for the liver mitochondria assay. A stock mitochondria/Fluo5N assay solution was prepared in 5.6 ml assay buffer (120 mM mannitol, 40 mM MOPS, 5 mM KH2PO4, 60 mM KCl, 10 mM pyruvate, 2 mM malate, 2 mM MgCl2, 20 μM ADP, 1.26 μM oligomycin A, adjusted to pH 7.4) supplemented with Fluo5N pentapotassium salt (2 μM) and 1 ml mitochondria suspension, then transferred (15 μl) into the assay plate containing test compounds and incubated for 10 min at RT. Assay plates were then transferred to a FLIPR Tetra plate reader (Molecular Devices). Dye fluorescence was then measured every 3 sec for a total of 10 min.

mPTP [2] = assay: mPTP activity (Ca2+ retention) assay in isolated rat liver mitochondria; type: biochemical; details: for mPTP Rat liver pIC50*: isolated rat liver mitochondria, Fluo5N fluorescence at 10 min after CaCl2 (75 μM) bolus, DMSO 0%, 5 μM cyclosporin A 100% inhibition
Description: Pharmacological inhibition or modulation of the mPTP can be measured in well characterised ‘Ca^2+ retention’ assays performed in isolated mitochondria. In vitro, isolated mitochondria rapidly sequester exogenous Ca^2+ until the intramitochondrial Ca^2+ concentration reaches the threshold for mPTP activation. Once the pore is activated, mitochondrial integrity is compromised and the stored Ca^2+ is released. The distribution of Ca^2+ between extra- and intra-mitochondrial compartments can be measured in real time with the use of membrane-impermeant Ca^2+ sensitive fluorescent dyes. Depending on the configuration of the assay, inhibition or modulation of the mPTP either delays the opening of the pore or increases the concentration of Ca^2+ required to induce mPTP opening.
MPTP activity was measured in mitochondria freshly isolated from female Sprague Dawley (250 to 300 gram) rat livers using the following method. Cervical dislocation was performed on the rat. The liver was then perfused in-situ with ~40 ml cold Dulbecco's Phosphate Buffered Saline (DPBS) prior to dissection and transferred into 30 ml Isolation Buffer (250 mM Sucrose, 10 mM KCl, 1 mM EGTA, 1 mM EDTA, 25 mM HEPES, adjusted to pH 7.5 with 1M NaOH). Each lobe of the liver was then removed from the buffer, minced using tweezers and a scalpel into ~5 mm pieces then transferred into a 50 ml Potterton dounce homogenization tube on ice containing 30 ml ice-cold centrifugation buffer (300 mM Trehalose, 25 mM HEPES, 1 mM EGTA, 1 mM EDTA, 10 mM KCl, adjusted to pH 7.5 with 1M NaOH and supplemented with 0.1% bovine serum albumin (BSA) and complete protease inhibitor cocktail (one tablet of inhibitor per 50 mls of buffer). Homogenisation was carried out using a Teflon® pestle at 1800 rpm. The slurry was centrifuged at 800 g for 10 min at 4° C., then the supernatant centrifuged at 10,000 g for 10 min. The pellet was washed once with FLIPR assay buffer (75 mM Mannitol, 25 mM Sucrose, 5 mM Potassium Phosphate Monobasic, 20 mM Tris base, 100 mM KCl, 0.1% BSA adjusted to pH 7.4 with 5M HCl) centrifuged again, then resuspended in FLIPR assay buffer to a concentration of 8.8 mg/ml protein.
Tested compounds (10 mM stock in DMSO) were serially diluted in DMSO in half log steps to generate 10 test concentrations (final concentrations in assay 30 μM to 1 nM). An intermediate dilution of 5 μl DMSO samples into 247 μl FLIPR assay buffer was carried out prior to transfer of 5 μl into duplicate wells of a 384 well polypropylene assay plate. Control wells were 0.5% (v/v) DMSO and 5 μM cyclosporin A.
A stock mitochondria/Fluo5N assay solution was prepared in 5.6 ml FLIPR assay buffer (at RT) supplemented with succinate disodium salt (10 mM), rotenone (1 μM), Fluo5N pentapotassium salt (2 μM) and 1 ml mitochondria suspension, then transferred (15 μl) into the assay plate containing test compounds and incubated for 10 min at RT. Assay plates were processed for fluorescence detection on either a FLIPR Tetra (Molecular Devices) or CLARIOstar (BMG) plate reader. For kinetic fluorescence detection on the FLIPR, dye fluorescence was measured every 3 sec for a total of 10 min. After 12 sec, a 2.5 μl bolus of CaCl2 (75 μM) was added from a source plate containing 675 μM CaCl2 in FLIPR assay buffer. Alternatively, the 2.5 μl addition of CaCl2 was performed using a Viaflow 384, plates were incubated at RT for 10 min, and dye fluorescence measured after 10 min on the CLARIOstar plate reader. pIC50 values for tested compounds were calculated using the fluorescence value collected at the 10 min timepoint on either plate reader, with % inhibition calculated using the DMSO control and cyclosporin A values as 0 and 100% respectively.

O=C(c1cccc(=O)[nH]1)N1CC(c2ccccc2)C2(CCC2)C1 (single isomer, unassigned) [Example 26b, 6-(8-phenyl-6-azaspiro[3.4]octane-6-carbonyl)pyridin-2(1H)-one]
mPTP Rat brain pIC50 (mPTP [1]): <4.52 | mPTP Rat liver pIC50* (mPTP [2]): <4.52

O=C(c1ccnc(=O)[nH]1)N1CC(c2ccccc2)C2(CCC2)C1 (single isomer, unassigned) [Example 27a, 6-(8-phenyl-6-azaspiro[3.4]octane-6-carbonyl)pyrimidin-2(1H)-one]
mPTP Rat brain pIC50 (mPTP [1]): 6.34 | mPTP Rat liver pIC50* (mPTP [2]): 6.11

O=C(c1ccnc(=O)[nH]1)N1CC(c2ccccc2)C2(CCC2)C1 (single isomer, unassigned) [Example 27b, 6-(8-phenyl-6-azaspiro[3.4]octane-6-carbonyl)pyrimidin-2(1H)-one]
mPTP Rat brain pIC50 (mPTP [1]): <4.52 | mPTP Rat liver pIC50* (mPTP [2]): <4.52

COc1ccc(C2CN(C(=O)c3cncc(=O)[nH]3)CC23CCC3)cc1 (single isomer, unassigned) [Example 28a, 6-(8-(4-methoxyphenyl)-6-azaspiro[3.4]octane-6-carbonyl)pyrazin-2(1H)-one]
mPTP Rat brain pIC50 (mPTP [1]): 5.69 | mPTP Rat liver pIC50* (mPTP [2]): 5.17

COc1ccc(C2CN(C(=O)c3cncc(=O)[nH]3)CC23CCC3)cc1 (single isomer, unassigned) [Example 28b, 6-(8-(4-methoxyphenyl)-6-azaspiro[3.4]octane-6-carbonyl)pyrazin-2(1H)-one]
mPTP Rat brain pIC50 (mPTP [1]): <4.52 | mPTP Rat liver pIC50* (mPTP [2]): <4.52

O=C(c1cncc(=O)[nH]1)N1CC(c2ccc(Br)cc2)C2(CCC2)C1 (single isomer, unassigned) [Example 29a, 6-(8-(4-bromophenyl)-6-azaspiro[3.4]octane-6-carbonyl)pyrazin-2(1H)-one]
mPTP Rat brain pIC50 (mPTP [1]): 6.2 | mPTP Rat liver pIC50* (mPTP [2]): 4.59

O=C(c1cncc(=O)[nH]1)N1CC(c2ccc(Br)cc2)C2(CCC2)C1 (single isomer, unassigned) [Example 29b, 6-(8-(4-bromophenyl)-6-azaspiro[3.4]octane-6-carbonyl)pyrazin-2(1H)-one]
mPTP Rat brain pIC50 (mPTP [1]): <4.52 | mPTP Rat liver pIC50* (mPTP [2]): <4.52

O=C(c1cncc(=O)[nH]1)N1CC(c2ccccc2Cl)C2(CCC2)C1 (single isomer, unassigned) [Example 30a, 6-(8-(2-chlorophenyl)-6-azaspiro[3.4]octane-6-carbonyl)pyrazin-2(1H)-one]
mPTP Rat brain pIC50 (mPTP [1]): 6.92 | mPTP Rat liver pIC50* (mPTP [2]): 5.28

O=C(c1cncc(=O)[nH]1)N1CC(c2ccccc2Cl)C2(CCC2)C1 (single isomer, unassigned) [Example 30b, 6-(8-(2-chlorophenyl)-6-azaspiro[3.4]octane-6-carbonyl)pyrazin-2(1H)-one]
mPTP Rat brain pIC50 (mPTP [1]): <4.52 | mPTP Rat liver pIC50* (mPTP [2]): <4.52

O=C(c1cncc(=O)[nH]1)N1CC(c2cccc(Cl)c2)C2(CCC2)C1 (single isomer, unassigned) [Example 31a, 6-(8-(3-chlorophenyl)-6-azaspiro[3.4]octane-6-carbonyl)pyrazin-2(1H)-one]
mPTP Rat brain pIC50 (mPTP [1]): 7.22 | mPTP Rat liver pIC50* (mPTP [2]): 6.17

O=C(c1cncc(=O)[nH]1)N1CC(c2cccc(Cl)c2)C2(CCC2)C1 (single isomer, unassigned) [Example 31b, 6-(8-(3-chlorophenyl)-6-azaspiro[3.4]octane-6-carbonyl)pyrazin-2(1H)-one]
mPTP Rat brain pIC50 (mPTP [1]): <4.52 | mPTP Rat liver pIC50* (mPTP [2]): 4.58

O=C(c1cncc(=O)[nH]1)N1CC(c2cc(Cl)ccc2F)C2(CCC2)C1 (single isomer, unassigned) [Example 32a]
mPTP Rat brain pIC50 (mPTP [1]): 7.19 | mPTP Rat liver pIC50* (mPTP [2]): 5.87

O=C(c1cncc(=O)[nH]1)N1CC(c2cc(Cl)ccc2F)C2(CCC2)C1 (single isomer, unassigned) [Example 32b]
mPTP Rat brain pIC50 (mPTP [1]): <4.52 | mPTP Rat liver pIC50* (mPTP [2]): <4.52

O=C(c1cncc(=O)[nH]1)N1CC(c2cccc(Cl)c2F)C2(CCC2)C1 (single isomer, unassigned) [Example 33a, 6-(8-(3-chloro-2-fluorophenyl)-6-azaspiro[3.4]octane-6-carbonyl)pyrazin-2(1H)-one]
mPTP Rat brain pIC50 (mPTP [1]): 7.32 | mPTP Rat liver pIC50* (mPTP [2]): 5.77

O=C(c1cncc(=O)[nH]1)N1CC(c2cccc(Cl)c2F)C2(CCC2)C1 (single isomer, unassigned) [Example 33b, 6-(8-(3-chloro-2-fluorophenyl)-6-azaspiro[3.4]octane-6-carbonyl)pyrazin-2(1H)-one]
mPTP Rat brain pIC50 (mPTP [1]): <4.52 | mPTP Rat liver pIC50* (mPTP [2]): <4.52

O=C(c1noc(=O)[nH]1)N1CC(c2ccccc2)C2(CCC2)C1 (single isomer, unassigned) [Example 34a, 3-(8-phenyl-6-azaspiro[3.4]octane-6-carbonyl)-1,2,4-oxadiazol-5(4H)-one]
mPTP Rat brain pIC50 (mPTP [1]): 7.37 | mPTP Rat liver pIC50* (mPTP [2]): 5.57

O=C(c1noc(=O)[nH]1)N1CC(c2ccccc2)C2(CCC2)C1 (single isomer, unassigned) [Example 34b, 3-(8-phenyl-6-azaspiro[3.4]octane-6-carbonyl)-1,2,4-oxadiazol-5(4H)-one]
mPTP Rat brain pIC50 (mPTP [1]): <4.52 | mPTP Rat liver pIC50* (mPTP [2]): <4.52

O=C(c1cncc(=O)[nH]1)N1CC(c2ccc(F)cc2)C2(CCC2)C1 (single isomer, unassigned) [Example 35a, 6-(8-(4-fluorophenyl)-6-azaspiro[3.4]octane-6-carbonyl)pyrazin-2(1H)-one]
mPTP Rat brain pIC50 (mPTP [1]): 7.5 | activity in the rat liver mitochondria assay (ranking in words) (mPTP [2]; among tested Example compounds): highest activity | mPTP Rat liver pIC50* (mPTP [2]): 6.82

O=C(c1cncc(=O)[nH]1)N1CC(c2ccc(F)cc2)C2(CCC2)C1 (single isomer, unassigned) [Example 35b, 6-(8-(4-fluorophenyl)-6-azaspiro[3.4]octane-6-carbonyl)pyrazin-2(1H)-one]
mPTP Rat brain pIC50 (mPTP [1]): 5.79 | mPTP Rat liver pIC50* (mPTP [2]): 5.57

O=C(c1cc(O)no1)N1CC(c2ccc(F)cc2)C2(CCC2)C1 (single isomer, unassigned) [Example 36a, (8-(4-fluorophenyl)-6-azaspiro[3.4]octan-6-yl)(3-hydroxyisoxazol-5-yl)methanone]
activity in the rat brain mitochondria assay (ranking in words) (mPTP [1]; among tested Example compounds): highest activity | mPTP Rat brain pIC50 (mPTP [1]): 7.53 | mPTP Rat liver pIC50* (mPTP [2]): 6.65
